Results as given in patent US20240365779A1, “POLLEN PRESERVATION COMPOSITIONS” (PowerPollen, Inc., priority 2017, published 2024).
“Also recorded” adds a separate entry of the source.

How the values were obtained:
[1] = system: maize pollen; experiment: Maize pollen viability by Amphasys impedance flow cytometry after storage with a substance; type: cell-based; conditions: 1:1 volume pollen to sugar, 4° C.
Procedure: In initial experiments considering different types separation compounds to use for pollen storage, experiments were conducted using activated charcoal as a separator. Field pollen was hand collected from various maize genotypes, and temporarily stored in 50 ml conical tubes, at 5° C. T0 Amphasys was conducted along with pollen moisture content (PMC) determination of the unmixed control pollen. Amphasys provides a reliable determination of pollen viability using an impedance flow cytometer, which measures the electrical properties of pollen grains. Viability at T0 was 97% with a PMC of 57% using the standard overnight oven method. The pollen was mixed with charcoal powder (activated charcoal) at various percentages. Activated charcoal is often used to absorb toxic substances. Mixed samples were then stored at 5° C., in uncapped 50 mL tubes. Timepoint data was collected at days 1 and 6, using Amphasys when the concentration of charcoal would allow. Small quantities of sample were suspended in Ampha 6 media and then filtered with a 150 μm filter to remove any large particles that might affect the fluidics on the Amphasys. […] Used in lower quantities, 2.5-25% in this case, viability remained as high as 92% at 6 days storage.
In continued efforts to test different substances for the purposes of pollen grain separation, an experiment was conducted with a series of different saccharides to determine efficacy for pollen grain separation and preservation. Mixed pollen was collected from various actively-shedding maize plants grown in the greenhouse. Hand collection was done with a funnel and screen to remove anthers. The bulk pollen sample was divided into four equal portions, each of which was approximately 5 mL in volume. Each sample of pollen was stored in a capped 50 mL conical tube at 5° C. overnight and its viability was tested using Amphasys roughly 24 hours after collection. A 1:1 volume ratio of one of three different types of sugars was added to each tube so that the amount of sugar was equal to the amount of pollen in each tube. […]

[2] = Flowability / clumping observation of pollen-substance mixtures; type: physicochemical; conditions: 1:1 pollen to sugar, 4° C.
[3] = system: rice pollen; experiment: Rice pollen viability by Amphasys after anther storage; type: cell-based
Procedure: Another experiment was conducted to test the efficacy of maintaining separation of pollen grains in rice. Rice anthers were collected from a pool of cut back glumes. One sample of the anthers was ground with a nylon pestle in 1.5 mL of Ampha 6 media, filtered, and run through the Amphasys system to measure T0 viability. Amphasys provides a reliable determination of pollen viability using an impedance flow cytometer, which measures the electrical properties of pollen grains.
A second subsample of the anthers was divided into three groups that were stored whole at 5° C. in cryo vials. […]. The samples in the vials had either no storage medium, lactose particulate storage medium, or chemical grade lactose combined with 2% Sipernat® 340 storage medium. After storage for either 4 days or 10 days, pollen was extracted from the stored anthers using the nylon pestle, and viability was determined using Amphasys.

[4] = system: wheat pollen; experiment: Wheat pollen viability by Amphasys after anther storage; type: cell-based
Procedure: In order to determine whether the method of maintaining pollen separation was effective in other plant species, experiments were conducted with wheat. Wheat heads of Grandin wheat variety were collected at early emergence stage and post-emergence stage. At the post emergence stage, a few anthers were exposed on the wheat heads. The anthers were collected from a subsample of the heads and the collected anthers were ground with a nylon pestle in 1.5 mL of Ampha 6 media, filtered, and run through the Amphasys system to measure T0 viability. Amphasys provides a reliable determination of pollen viability using an impedance flow cytometer, which measures the electrical properties of pollen grains.
A second subsample of the early emergence stage and post-emergence wheat heads were taken from different regions of each head. These samples were stored whole at 5° C. in cryo vials. The samples in the vials had either no storage medium, lactose particulate storage medium, or lactose (Lab grade D-lactose monohydrate, RPI #L26100-1000.0) combined with 2% Sipernat® 340 storage medium. After storage for either 3 or 14 days, pollen was extracted from the stored anthers using the nylon pestle, and viability was determined using Amphasys.

[5] = system: maize pollen; experiment: Germination assay of stored maize pollen (pollen tube formation); type: cell-based; conditions: equal portion with pollen, 20 hours of storage at 4 degrees Celsius
Procedure: Casein and cellulose were both tested separately as possible substances for maintaining or increasing pollen viability. […] Freshly harvested maize pollen was harvested from actively shedding tassels. The pollen was divided into two equal portions, each of which was placed into a 50 ml centrifuge tube. […] Each tube was stored for 24 hours at 4 degrees Celsius. A germination assay was conducted after 24 hours. […] Sonneborn® PD-23 mineral oil was tested as a pollen separation agent. This substance was a liquid at all stages of the described experiment. Freshly harvested pollen from a bulk of maize plants was placed into mineral oil and stored at 4 degree Celsius for a period of 20 hours. After 20 hours, germination media was applied into the oil formulation. The results supported that liquid serves as a proficient storage media for pollen. […] This further supports the concept that separation of pollen grains increases viability.

With `OC[C@H]1O[C@@H](O[C@H]2[C@H](O)[C@@H](O)C(O)O[C@@H]2CO)[C@H](O)[C@@H](O)[C@H]1O` (some centres unmarked) [lactose] the viability ([1]; Day 8) was 77%, the “flowability of pollen in sample” value [2] was “slightly clumpy” and the “Pollen Viability (%)” value ([3]; Day 4, anthers stored whole at 5° C.) was 57-63%. The “Pollen Viability (%)” value ([3]; Day 10, anthers stored whole at 5° C.) was 24-27%, the “Early Emergence Heads Viability (%)” value ([4]; Day 3, stored whole at 5° C.) was 28-41% and the “Post-emergence Heads Viability (%)” value ([4]; Day 3, stored whole at 5° C.) was 27-35%. The “Early Emergence Heads Viability (%)” value ([4]; Day 14, stored whole at 5° C.) was 39-44% and the “Post-emergence Heads Viability (%)” value ([4]; Day 14, stored whole at 5° C.) was 6-17%.

In the case of `OC[C@H]1O[C@H](O[C@H]2O[C@H](CO)[C@@H](O)[C@H](O)[C@H]2O)[C@H](O)[C@@H](O)[C@@H]1O` [trehalose], the viability ([1]; Day 2, compared to the other 3 samples) is reported as “sharper decline” and the viability ([1]; after 24 hours of storage, compared to the other samples) is reported as “slight decline in viability”.

In the case of casein, the “viability (germination assay)” value [5] is reported as “largely, if not completely unviable; also recorded: little to no viability”.
